Experimental data reported in US20220273590A1, “COMPOUNDS FOR PREVENTION AND TREATMENT OF POST-OPERATIVE COGNITIVE DYSFUNCTION” (ABREXA PHARMACEUTICALS, INC., priority 2019, published 2022).
Where “and” joins values, the source holds several entries; their conditions need not be identical. Equal values may be shown once. Read-outs that look alike come from different tables or passages of the source.

Assays:
[1] = Body weight and food intake in the POCD study; assay type: in vivo, Wistar rats
Description: A total of 60 male Wistar rats (Wu-Wistar, Envigo, The Netherlands) were studied in 5 cohorts. For that, rats were ordered in 5 groups of different weight classes (220-280 g) to ensure that each group would be around 350 g at the time of surgery. Rats arrived at the facility at least 2 weeks before start of the experiments, and were put on reversed light:dark cycle 12:12 with the lights out at 09:00 am. Rats were housed in groups of 2-3 in standard cages under controlled conditions (temperature of 20+/−2 degrees and humidity of 50% +/−10%). The rats were fed with water and Teklad (Envigo, 2018) chow food ad libitum. After surgery, rats were housed individually. Approval of all experiments was given by the applicable animal and welfare committee of the Netherlands.
One week before surgery, chronic treatment J147 treatment started and continued until the end of the experiment. The day of surgery, rats for acute treatment received their J147 (4-5 hours before surgery) by gavage, while the designated control rats received vehicle gavage. Rats were subjected to abdominal surgery, and allowed to recover. After that rats were housed individually. Non-surgery control were placed in individual cages at the same time. Blood samples were collected from the jugular vein catheter at the time of surgery (plasma levels of J147) and at 1, 6 and 24 hours after surgery (plasma inflammatory markers). The first week post-surgery, rats were weighed daily and food intake was measured. Day 7-12 post-surgery rats were subjected to behavioral testing regarding general exploratory behavior and cognitive performance. On Day 14 rats were sacrificed, blood samples were collected from cardiac puncture, CSF was collected, and brain tissue was collected and processed for immunohistochemistry or molecular analyses.
For chronic oral treatment, J147 was added to the food (Teklad 2018, Envigo) at a concentration of 500 mg/kg. J147 was provided by Abrexa and Envigo prepared the food. […] After surgery food intake was measured daily during the last hour of the light phase. […]

[2] = Pharmacokinetic plasma parameters of J147, oral and intravascular administration; assay type: in vivo, Adult Wister Rats; conditions: for FInf: calculated based on AUCInf; for Flast: calculated based on AUClast
Protocol: Plasma samples obtained during surgery in J147-treated rats and 3 control rats were measured for circulating levels of J147. Results of pharmacokinetic measures of both plasma and brain levels of J147 in rats following oral administration of J147 in basis suspension at 20 mg/kg and also following intravascular administration at 5 mg/kg are shown in Table 2A-C below. When taking the absence of an appropriate peak as zero, mean concentration is 0 ng/ml in controls, 3.103 ng/ml in acutely treated rats and 0.233 ng/ml in chronically treated rats. J147 levels in food were verified as well (467 mg/kg). […] During the first 10 days after surgery and individual housing, rats on the diet ate on average 20±1 g, which was similar to the 20±1 g in surgery with control food and 23±1 g in non-surgery controls, verifying the anticipated intake of 10 mg J147/rat/day and further supporting no preference or aversion for the diet food.

[3] = IV 5 mg/kg, 1 mg/mL in DMSO/PEG 200/Saline 5/70/25, individual animals (1148, 1154, 1156, 1158), 5 mg/kg
[4] = IV 5 mg/kg, individual animals (1148, 1154, 1156, 1158), 5 mg/kg
[5] = PO_A 20 mg/kg, 7 mg/mL in Basis, individual animals (1142, 1144, 1150, 1166), 20 mg/kg
[6] = PO_A 20 mg/kg, individual animals (1142, 1144, 1150, 1166), 20 mg/kg
[7] = Wistar, rat, plasma, iv, 5 mg/kg, IV 5 mg/kg, Mean of 4 animals
[8] = Wistar, rat, plasma, po, 20 mg/kg, PO_B (oral, Basis), Mean

Tmax [2, 3]: 4.98 min and 15 min
t1/2 [2, 3]: 64.8 min and 57.8 min and 51.1 min
AUC_% Ex Trap ([2]; IV 5 mg/kg, Mean of 4 animals): 1.58%
Cl_obs ([2]; IV 5 mg/kg, Mean of 4 animals): 77.4 mL/min/kg
vss_obs ([2]; IV 5 mg/kg, Mean of 4 animals): 5.18 L/kg
AUC_% Ex Trap [2, 4]: 1.14% and 2.31% and 1.89% and 0.979%
MRT [2, 4]: 55.6 min and 44.1 min and 34.3 min
AUClast ([2]; IV 5 mg/kg, last time point 6 h, Mean of 4 animals): 782 ng·mL·h
t1/2 [2, 5]: 96.6 min and 70.8 min
AUC_% Ex Trap ([2]; PO_A 20 mg/kg, Mean): 7.60%
FInf ([2]; PO_A 20 mg/kg, Mean): 4.29%
FInf [2, 6]: 2.64% and 2.72% and 7.50%
Flast ([2]; PO_A 20 mg/kg, Mean): 3.61%
Flast [2, 6]: 2.45% and 2.23% and 2.51% and 7.25%
AUC_% Ex Trap [2, 6]: 7.91% and 9.72% and 5.17%
AUClast ([2]; PO_A 20 mg/kg, last time point 6 h, Mean): 105 ng·mL·h
AUC_% Ex Trap ([2]; PO_B (oral, Basis), Mean): 15.9%
AUClast ([2]; PO_B (oral, Basis), last time point 4 h, Mean): 64.7 ng·mL·h
half-life ([2]; Wistar, rat, plasma, iv, 5 mg/kg, IV 5 mg/kg, 1 mg/mL in DMSO/PEG 200/Saline 5/70/25, individual animals (1148, 1154, 1156, 1158)): 63.6 min
AUC(0-inf) [2, 7]: 795 ng·h/mL
half-life [2, 7]: 59.2 min
C0 ([2]; Wistar, rat, plasma, iv, 5 mg/kg, IV 5 mg/kg, Mean of 4 animals, read-out: C0): 2290 ng/mL
MRT ([2]; Wistar, rat, plasma, iv, 5 mg/kg, IV 5 mg/kg, Mean of 4 animals, read-out: MRT): 41.7 min
Tmax ([2]; Wistar, rat, plasma, iv, 5 mg/kg, IV 5 mg/kg, Mean of 4 animals, read-out: tmax): 7.5 min
AUC(0-inf) ([2]; Wistar, rat, plasma, iv, 5 mg/kg, IV 5 mg/kg, individual animals (1148, 1154, 1156, 1158)): 924 ng·h/mL
MRT ([2]; Wistar, rat, plasma, iv, 5 mg/kg, IV 5 mg/kg, individual animals (1148, 1154, 1156, 1158), read-out: MRT): 32.8 min
half-life ([2]; Wistar, rat, plasma, po, 20 mg/kg, PO_A 20 mg/kg, 7 mg/mL in Basis, Mean): 84.6 min
Cmax ([2]; Wistar, rat, plasma, po, 20 mg/kg, PO_A 20 mg/kg, 7 mg/mL in Basis, Mean, read-out: Cmax): 43.7 ng/mL
Tmax ([2]; Wistar, rat, plasma, po, 20 mg/kg, PO_A 20 mg/kg, 7 mg/mL in Basis, Mean, read-out: tmax): 52.8 min
half-life ([2]; Wistar, rat, plasma, po, 20 mg/kg, PO_A 20 mg/kg, 7 mg/mL in Basis, individual animals (1142, 1144, 1150, 1166)): 87 min
Tmax ([2]; Wistar, rat, plasma, po, 20 mg/kg, PO_A 20 mg/kg, 7 mg/mL in Basis, individual animals (1142, 1144, 1150, 1166), read-out: tmax): 60 min
AUC(0-inf) ([2]; Wistar, rat, plasma, po, 20 mg/kg, PO_A 20 mg/kg, Mean): 121 ng·h/mL
AUC(0-inf) [2, 8]: 76.9 ng·h/mL
half-life [2, 8]: 85.2 min
Cmax ([2]; Wistar, rat, plasma, po, 20 mg/kg, PO_B (oral, Basis), Mean, read-out: Cmax): 47.4 ng/mL
Tmax ([2]; Wistar, rat, plasma, po, 20 mg/kg, PO_B (oral, Basis), Mean, read-out: tmax): 30 min
Compound: COc1cccc(/C=N/N(C(=O)C(F)(F)F)c2ccc(C)cc2C)c1 [J147]
body weight gained during first week on the J147 diet ([1]; chronic J147 500 mg/kg food, week before surgery, control fed rats 33.5±3.0 g): 32.0 ± 1.8 g
average food eaten during the first 10 days after surgery ([1]; chronic J147 diet, individual housing, surgery control food 20±1 g): 20 ± 1 g
body weight loss after surgery ([1]; chronically treated rats (J147 500 mg/kg food)): lost significantly less body weight after surgery
C0 [2, 3]: 4706 ng/mL and 384 ng/mL and 1572 ng/mL and 2509 ng/mL
Cl_obs [2, 3]: 90.2 mL/min/kg and 98.9 mL/min/kg and 107 mL/min/kg
AUCInf [2, 4]: 842 ng·h/mL and 631 ng·h/mL and 781 ng·h/mL
vss_obs [2, 4]: 3.39 L/kg and 6.41 L/kg and 6.82 L/kg and 4.07 L/kg
AUClast ([2]; IV 5 mg/kg, last time point 6 h, individual animals (1148, 1154, 1156, 1158), 5 mg/kg): 913 ng·mL·h and 823 ng·mL·h and 619 ng·mL·h and 774 ng·mL·h
Cmax [2, 5]: 29.0 ng/mL and 39.9 ng/mL and 36.5 ng/mL and 69.2 ng/mL
AUCInf [2, 6]: 82.5 ng·h/mL and 91.5 ng·h/mL and 189 ng·h/mL
AUClast ([2]; PO_A 20 mg/kg, last time point 6 h, individual animals (1142, 1144, 1150, 1166), 20 mg/kg): 76.0 ng·mL·h and 81.6 ng·mL·h and 82.6 ng·mL·h and 180 ng·mL·h
